Measured values from patent publication US9012166B2, “Method for assaying histone methylation enzyme activity” (Kyushu Institute of Technology, priority 2010, dated 2015).
Like-named read-outs stand apart in the source and are kept apart here.

Target: T1, Set9 (His-Set9, His-Set7/9) (Homo sapiens, UniProt Q8WTS6)
T1 sequence (Q8WTS6 1-366): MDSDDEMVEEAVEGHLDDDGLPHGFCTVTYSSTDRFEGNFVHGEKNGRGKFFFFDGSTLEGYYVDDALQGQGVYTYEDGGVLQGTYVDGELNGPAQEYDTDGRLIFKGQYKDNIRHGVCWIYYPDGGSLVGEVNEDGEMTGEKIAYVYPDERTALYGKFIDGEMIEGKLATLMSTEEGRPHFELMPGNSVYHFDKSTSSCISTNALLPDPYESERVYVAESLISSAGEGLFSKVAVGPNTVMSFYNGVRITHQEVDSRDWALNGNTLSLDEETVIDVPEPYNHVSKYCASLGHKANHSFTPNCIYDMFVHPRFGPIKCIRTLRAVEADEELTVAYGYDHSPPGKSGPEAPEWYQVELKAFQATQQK
Test: Assay for measuring histone methyltransferase activity using peptidyl MCA, inhibitor evaluation with Set9
Assay type: biochemical
Method: When Set9 was adopted as a histone methyltransferase, the following method was used. 10 μL of 2×HMT buffer (100 mM Tris-HCl (pH 8.5), 20 mM MgCl2, 40 mM KCl, 20 mM 2-mercaptoethanol, 500 mM sucrose), 0.4 μL of a BSA solution (150 μg/mL), 4.5 μL of His-Set9 (0, 2.25 μg/μL), 1 μL of gliotoxin (any of various concentrations) and 0.1 μL of distilled water were mixed and then incubated at room temperature for 1 hour. Then, 2 μL of SAM (10 mM) and 2 μL of a peptidyl MCA (Ac-p53 (369-372)-MCA) solution (0.6 mM) were added thereto, which was then incubated at 37° C. for 1 hour. Thereafter, 30 μL of a trypsin solution (20 mg/mL) was added thereto, followed by incubation at 37° C. for 15 minutes. Then, the fluorescence intensity of the solution was measured at an excitation wavelength (λex) of 390 nm and a fluorescence wavelength (λem) of 460 nm. The final concentration of His-Set9 during the measurement of fluorescence intensity was 0.5 μg/μL. […]
The rate of the inhibition of methylation by gliotoxin was calculated from the results in the left panel and the middle panel of FIG. 18. Specifically, the value (%) was calculated which was obtained by dividing “a value obtained by subtracting “the fluorescence intensity of AMC when peptidase was added but gliotoxin was not added” from “the fluorescence intensity of AMC when both peptidase and gliotoxin were added”” by “a value obtained by subtracting “the fluorescence intensity of AMC when peptidase was added but gliotoxin was not added” from “the fluorescence intensity of AMC when no peptidase or gliotoxin was added”” and multiplying the resultant value by 100. […]
When His-Set7/9 was adopted as a histone methyltransferase, the following method was used. […] Then, the fluorescence intensity of the solution was measured at an excitation wavelength (λex) of 330 nm and a fluorescence wavelength (λem) of 380 nm or at an excitation wavelength (λex) of 390 nm and a fluorescence wavelength (λem) of 460 nm. The final concentration of His-Set7/9 during the measurement of fluorescence intensity was 0 μg/μL or 0.05 μg/μL.

Measured: IC50

CN1C(=O)[C@]23CC4=CC=C[C@H](O)[C@H]4N2C(=O)[C@@]1(CO)SS3 [gliotoxin]
> 100 µM: Example 8, Ac-p53 (369-372)-MCA, AMC fluorescence λex 390 nm/λem 460 nm, FIG. 18, read-out: IC50 for Set9 | Example 14, Ac-ERα(299-302)-MCA, AMC fluorescence λex 390 nm/λem 460 nm, left panel, read-out: IC50 for His-Set7/9 | Example 14, Ac-ERα(299-302)-MCA, peptidyl MCA fluorescence λex 330 nm/λem 380 nm, right panel of FIG. 28, read-out: IC50 for His-Set7/9
